# Source: paper PMC11725581, “Developing novel Lin28 inhibitors by computer aided drug design” (Cell Death Discovery, 2025)
# Legend:
# Format in all cases: cell-based
# [1] = test system: HEC50 cells; assay: Cell proliferation (Incucyte), HEC50; conditions: Lin28a/Lin28b-negative
# Excerpt: (§1) To further evaluate whether the suppressive effects of Ln268 are specific to Lin28-positive cancer cells, we compared cell growth rates of DuNE (Lin28b-positive line) and Du145 (Lin28b-negative line), both of which are Lin28a-negative. DuNE has the same genomic background with Du145 except for the transduction of the SRRM4 gene. […] Furthermore, Ln268 had no impact on the cell growth of DuNE(KO) cells, in which the Lin28b gene was knocked out by CRISPR (Fig. 5C). […] We also tested several ovarian and endometrial cancer cell lines with different Lin28a and Lin28b expression profiles (Fig. 5E).
# [2] = test system: Kuramochi cells; assay: Cell proliferation (Incucyte), Kuramochi; conditions: Lin28a/Lin28b-positive
# Excerpt: as §1
# [3] = test system: DuNE cells; assay: Cell cycle analysis by FACS, DuNE cells; conditions: 0-20 μM, 144 h
# Excerpt: To further compare the potency of Ln268 with C1632 and Ln15 in suppressing DuNE cell growth, we also measured cell growth rates under […] conditions (Fig. 4E). […] In addition, we used FACS assays to confirm that Ln268-mediated cell growth inhibition was due to its effects on blocking cancer cell cycling from the G1 phase towards the S and M phases (Fig. 4F). […] In summary, we confirmed that Ln268 is a potent Lin28 inhibitor that blocks the CSC phenotype of cancer cells, suppresses formation of 3D colonies, and inhibits cancer cell proliferation.
# [4] = test system: Lin28b-mediated SG formation in DuNE cells; assay: Stress granule (SG) formation induced by ARS, confocal microscopy
# Excerpt: To assess whether Lin28 inhibitors can inhibit SG formation in cancer cells, we induced SGs in DuNE cells using ARS. These cells were co-treated with either vehicle, C1632, Ln15, or Ln268 (Fig. 6F). As a positive control, RNase was also included since it is known to prevent Lin28-mediated SG formation. Under vehicle treatment condition, Lin28b was primarily localized within SGs; however, in the presence of Lin28 inhibitors, its subcellular distribution became more diffuse, extending beyond SGs. SG formation involves a dynamic process in which initial smaller granules coalesce to form larger, mature SGs through phase separation (Fig. 6F).
# Cells were fixed with 4% paraformaldehyde, treated in 0.25% Triton X-100 for 15 mins, and mounted with DAPI staining mount (Vector Labs; Burlingame, USA). Cell images were captured by confocal microscopy at 63X magnification (Zeiss; Germany).
# [5] = test system: ES-2 cells; assay: Cell proliferation (Incucyte), ES-2; conditions: Lin28a/Lin28b-negative
# Excerpt: as §1
# [6] = test system: Du145 (Lin28b-negative line); assay: Cell proliferation (Incucyte), Du145 cells
# Excerpt: as §1
# [7] = test system: Du145 spheroids; assay: Du145 spheroid growth; conditions: 0-192 h
# Excerpt: as §1
# For a spheroid generation, 1000 cells/well were seeded in 96-well ULA round-bottomed plates (Corning, Amsterdam) using a multichannel pipette. 3D multicellular spheroids were spontaneously generated after 24 h culture. Plates were incubated for 6 days at 37 °C, 5% CO2, and 95% humidity. DuNE and Du145 cells were cultured in DMEM with 10% FBS. Fully automated image analysis of tumor spheroids was carried out with the Incucyte® S3 Live-Cell Analysis System. The size and shape of multicellular spheroids were analyzed by using the Incucyte® Spheroid Analysis Software Module.
# [8] = test system: DuNE cells; assay: Drug-drug interaction (SynergyFinder) in DuNE cells; conditions: score higher than 10 = synergistic
# Experimental: Fig. 6 Ln268 enhances stress inducers to inhibit cancer cell growth. A, B DuNE cells were transfected with GFP-tagged Lin28b together with either RFP-tagged G3BP1, YB-1, or DCP1. Cells were then challenged with ARS (A), cisplatin (CP) or etoposide (etop) (B) to induce a stress condition. Confocal microscope detected the subcellular localization of Lin28b. C, D Du145, DuNE and DuNE(KO) cells were treated with ARS (C), cisplatin (CP) or etoposide (etop) (D). Percentage of cells forming SGs was counted in five random fields from two replicate experiments. E DuNE and DuNE(KO) cells were treated with ARS, cisplatin or etoposide. Cell viability was measured by Incucyte. F DuNE cells were transfected with GFP-tagged Lin28b and treated with ARS together with C1632, Ln15, Ln268, or RNase. Confocal microscope detected SGs formation mediated by Lin28b. Fluorescence images were captured, and SGs sizes and numbers were calculated as shown. […] Drug interactions were calculated by SynergyFinder, with a synergy score higher than 10 representing synergistic relationship. […]
# We subsequently investigated whether Ln268 could potentiate anticancer effects of stress inducers to block cancer cell growth in vitro. First, we determined the IC50 values of each inhibitor, which were then used to formulate drug-drug interactions of Ln268 with cisplatin, etoposide, or ARS (Figure S5). […]
structure (smiles),measurement,setting,value
O=c1[nH]c(Nc2ccc(F)cc2O)cs1 [Ln268],effect on growth of HEC50 cells,[1],no or minimal impacts
same,effect on growth of Kuramochi cells,[2],suppressed the growth
same,cell cycle effect (FACS),[3],arrested in G2/M in a dose-dependent manner
same,effect on aggregation of smaller granules (<20 pixels) into larger SGs (>50 pixels),[4],the most suppressive effect
same,effect on growth of ES-2 cells,[5],no or minimal impacts
same,effect on Du145 cell growth and cell morphology,[6],no impact
same,effect on Du145 spheroids,[7],no effect
same,"synergy score, Ln268 + cisplatin",[8],19.39
same,"synergy score, Ln268 + etoposide",[8],12.77
